Values after ≈ are worked out from the molar mass of the structure shown. One block for each molecule: values may come before it. Positions of bridges follow the written chain, without caps; N, C: chain ends. Non-standard residues stand in square brackets, D forms with d. Residues, ends and D or L forms follow the SMILES beside them. S5 = C=CCCC[C@](C)(N)C(=O)O; Dab = NCC[C@H](N)C(=O)O; Dap = NC[C@H](N)C(=O)O
Experiments:
E. coli = type: cell-based, Escherichia coli
Protocol: (§1) Antimicrobial Activity Assay: The following microbroth dilution protocol was adapted from CLSI to determine the minimum inhibitory concentration (MIC) of StAMPs. Briefly, Mueller-Hinton broth (MHB) or cation-adjusted Mueller-Hinton broth (MHB II) was prepared and autoclaved. Then, a colony of bacterial cells was picked and grown overnight in broth at 37° C. and then diluted and allowed to grow again for 3-4 hours. Serial dilutions of peptide stocks in water (10 μl) were prepared using clear round-bottom polypropylene 96-well plates. Then 90 μl of bacteria in broth was added to give a final inoculum of 5×10^5 CFU/ml. The plates were then covered with porous tape to reduce evaporation and incubated for 20-24 hours at 37° C. The MIC was the minimum peptide concentration at which no visible bacterial growth was observed.
(§2) Renal toxicity was measured after 90 minutes of incubation, while liver toxicity was measured after 48 hours of incubation with StAMPs. N/A=not tested. The following apply to all peptides (i.e., StAMPs) listed in Tables A-C: Crosslinks (X^1—X^2 and X^3—X^4): (alk); N-terminus: —NH2; C-terminus: amidated with —NH2; counterion: Cl^−. The following apply to all peptides (i.e., StAMPs) listed in Table D: Crosslinks (X^1—X^2 and X^3—X^4): (alk); N-terminus: —NH2; C-terminus: as shown in table; counterion: Cl^−.

A. baumannii = type: cell-based, Acinetobacter baumannii
Protocol: as §1, §2

P. aeruginosa = type: cell-based, Pseudomonas aeruginosa
Protocol: as §1, §2
StAMP Micelle Formulation: DSPE-MPEG(2000) was suspended in buffered saline at 50-100 mg/mL overnight. StAMP stock solutions at 5-20 mg/mL in buffered saline were prepared and equal volumes of micelle and StAMP stock solution were mixed at the desired StAMP:Lipid ratio. Suspensions were allowed to sit for 5-10 minutes at room temperature before being used in in vitro and in vivo assays. […]

K. pneumoniae = type: cell-based, Klebsiella pneumoniae
Protocol: as §1, §2

S. aureus = type: cell-based, Staphylococcus aureus
Protocol: as §1, §2

in vitro = type: cell-based; conditions: human, Inhibitory Concentration at 50% Cytotoxicity (IC50) Human Liver Cells (HepG2)
Protocol: Cell culture: RPTEC were maintained in MEM media supplemented with growth factors. HEPG2 cell line was maintained in Eagle's Minimum Essential Medium (EMEM) supplemented with fetal bovine serum to a final concentration of 10%.
48 hours cytotoxicity assay: Cells were plated in a 96-well format, and after 4 hour incubation to allow attachment, serial dilutions of StAMPs from a 5 mg/mL water stock, or vehicle, were then added to the cells in a final volume of 100 μl. After incubating at 37° C. for 48 hours, 100 μl of CellTiter-Glo® reagent was added to the cells, and the plates were incubated 10 minutes at room temperature. Luminescence was then measured on a microplate reader.
as §2

- Minimum Inhibitory Concentration (MIC) E. coli (E. coli): 64 µg/mL
- Minimum Inhibitory Concentration (MIC) A. baumannii (A. baumannii): 64 µg/mL
- Minimum Inhibitory Concentration (MIC) P. aeruginosa (P. aeruginosa): 32 µg/mL
- Minimum Inhibitory Concentration (MIC) K. pneumoniae (K. pneumoniae): >64 µg/mL
- Minimum Inhibitory Concentration (MIC) S. aureus (S. aureus): >64 µg/mL
SMILES: CC(C)[C@@H]1NC(=O)[C@@](C)(NC(=O)[C@H](C)NC(=O)[C@H](CCCCN)NC(=O)CNC(=O)[C@H](Cc2ccccc2)NC(=O)[C@H](CCCCN)NC(=O)[C@H](CCCCN)NC(=O)[C@H](CN)NC(=O)[C@H](CCCCN)NC(=O)[C@H](CN)NC(=O)[C@]2(C)CCCC=CCCC[C@](C)(NC(=O)CN)C(=O)NCC(=O)N[C@@H](CCCCN)C(=O)N[C@@H](Cc3ccccc3)C(=O)N2)CCCC=CCCC[C@@](C)(C(=O)N[C@@H](C)C(=O)N[C@@H](CCCCN)C(=O)N[C@@H](CCCCN)C(=O)NCC(=O)NCC(=O)N[C@@H](CCC(=O)O)C(N)=O)NC(=O)[C@H](CCC(=O)O)NC(=O)CNC1=O [compound 83] (H-G[S5]GKF[S5][Dap]K[Dap]KKFGKA[S5]VGE[S5]AKKGGE-NH2; staple 2-6, 16-20)
- IC50 at 48 hours (in vitro): > 200 µg/mL

- Minimum Inhibitory Concentration (MIC) E. coli (E. coli): 4 µg/mL
- Minimum Inhibitory Concentration (MIC) A. baumannii (A. baumannii): 2 µg/mL
- Minimum Inhibitory Concentration (MIC) P. aeruginosa (P. aeruginosa): 8 µg/mL
- Minimum Inhibitory Concentration (MIC) K. pneumoniae (K. pneumoniae): 16 µg/mL
- Minimum Inhibitory Concentration (MIC) S. aureus (S. aureus): 32 µg/mL
SMILES: CC(C)[C@@H]1NC(=O)[C@@](C)(NC(=O)[C@H](C)NC(=O)[C@H](CCCCN)NC(=O)CNC(=O)[C@H](Cc2ccccc2)NC(=O)[C@H](CCCCN)NC(=O)[C@H](CCCCN)NC(=O)[C@H](CCN)NC(=O)[C@H](CCCCN)NC(=O)[C@H](CCCCN)NC(=O)[C@]2(C)CCCC=CCCC[C@](C)(NC(=O)CN)C(=O)NCC(=O)N[C@@H](CCCCN)C(=O)N[C@@H](Cc3ccccc3)C(=O)N2)CCCC=CCCC[C@@](C)(C(=O)N[C@@H](C)C(=O)N[C@@H](CCCCN)C(=O)N[C@@H](CCCCN)C(N)=O)NC(=O)[C@H](CCC(=O)O)NC(=O)CNC1=O [compound 42] (H-G[S5]GKF[S5]KK[Dab]KKFGKA[S5]VGE[S5]AKK-NH2; staple 2-6, 16-20)
- IC50 at 48 hours (in vitro): 194 µg/mL (≈ 76.5 µM)

- Minimum Inhibitory Concentration (MIC) E. coli (E. coli): 2 µg/mL
- Minimum Inhibitory Concentration (MIC) A. baumannii (A. baumannii): 2 µg/mL
- Minimum Inhibitory Concentration (MIC) P. aeruginosa (P. aeruginosa): 4 µg/mL
- Minimum Inhibitory Concentration (MIC) K. pneumoniae (K. pneumoniae): 4 µg/mL
- Minimum Inhibitory Concentration (MIC) S. aureus (S. aureus): >64 µg/mL
SMILES: CC(C)[C@@H]1NC(=O)[C@@](C)(NC(=O)[C@H](C)NC(=O)[C@H](CCCCN)NC(=O)CNC(=O)[C@H](Cc2ccccc2)NC(=O)[C@H](CCCCN)NC(=O)[C@H](CCCCN)NC(=O)[C@H](CCCCN)NC(=O)[C@H](CCCCN)NC(=O)[C@H](CCCCN)NC(=O)[C@]2(C)CCCC=CCCC[C@](C)(NC(=O)CN)C(=O)NCC(=O)N[C@@H](CN)C(=O)N[C@@H](Cc3ccccc3)C(=O)N2)CCCC=CCCC[C@@](C)(C(=O)N[C@@H](C)C(=O)N[C@@H](CCCCN)C(=O)N[C@@H](CCCCN)C(N)=O)NC(=O)[C@H](CCC(=O)O)NC(=O)CNC1=O [compound 45] (H-G[S5]G[Dap]F[S5]KKKKKFGKA[S5]VGE[S5]AKK-NH2; staple 2-6, 16-20)
- IC50 at 48 hours (in vitro): 104 µg/mL (≈ 41.2 µM)

- Minimum Inhibitory Concentration (MIC) E. coli (E. coli): 1 µg/mL
- Minimum Inhibitory Concentration (MIC) A. baumannii (A. baumannii): 1 µg/mL
- Minimum Inhibitory Concentration (MIC) P. aeruginosa (P. aeruginosa): 1 µg/mL
- Minimum Inhibitory Concentration (MIC) K. pneumoniae (K. pneumoniae): 32 µg/mL
- Minimum Inhibitory Concentration (MIC) S. aureus (S. aureus): >64 µg/mL
SMILES: CC(C)[C@@H]1NC(=O)[C@@](C)(NC(=O)[C@H](C)NC(=O)[C@H](CCCCN)NC(=O)CNC(=O)[C@H](Cc2ccccc2)NC(=O)[C@H](CCCCN)NC(=O)[C@H](CCCCN)NC(=O)[C@H](CCCCN)NC(=O)[C@H](CCCCN)NC(=O)[C@H](CN)NC(=O)[C@]2(C)CCCC=CCCC[C@](C)(NC(=O)CN)C(=O)NCC(=O)N[C@@H](CCCCN)C(=O)N[C@@H](Cc3ccccc3)C(=O)N2)CCCC=CCCC[C@@](C)(C(=O)N[C@@H](C)C(=O)N[C@@H](CCCCN)C(=O)N[C@@H](CCCCN)C(N)=O)NC(=O)[C@H](CCC(=O)O)NC(=O)[C@H](CO)NC1=O [compound 88] (H-G[S5]GKF[S5][Dap]KKKKFGKA[S5]VSE[S5]AKK-NH2; staple 2-6, 16-20)
- IC50 at 48 hours (in vitro): 168 µg/mL (≈ 65.8 µM)

Second part, the molecule before the results:

SMILES: CC(C)[C@@H]1NC(=O)[C@@](C)(NC(=O)[C@H](CO)NC(=O)[C@H](CCCCN)NC(=O)CNC(=O)[C@H](Cc2ccccc2)NC(=O)[C@H](CCCCN)NC(=O)[C@H](CCCCN)NC(=O)[C@H](CCCCN)NC(=O)[C@H](CCCCN)NC(=O)[C@H](CCCCN)NC(=O)[C@]2(C)CCCC=CCCC[C@](C)(NC(=O)CN)C(=O)NCC(=O)N[C@@H](CCCCN)C(=O)N[C@@H](Cc3ccccc3)C(=O)N2)CCCC=CCCC[C@@](C)(C(=O)N[C@@H](C)C(=O)N[C@@H](CCCCN)C(=O)N[C@@H](CCCCN)C(=O)NCC(=O)NCC(=O)N[C@@H](CCC(=O)O)C(N)=O)NC(=O)[C@H](CCC(=O)O)NC(=O)CNC1=O [compound 92] (H-G[S5]GKF[S5]KKKKKFGKS[S5]VGE[S5]AKKGGE-NH2; staple 2-6, 16-20)
- Minimum Inhibitory Concentration (MIC) E. coli (E. coli): 16 µg/mL
- Minimum Inhibitory Concentration (MIC) A. baumannii (A. baumannii): 4 µg/mL
- Minimum Inhibitory Concentration (MIC) P. aeruginosa (P. aeruginosa): 16 µg/mL
- Minimum Inhibitory Concentration (MIC) K. pneumoniae (K. pneumoniae): >64 µg/mL
- Minimum Inhibitory Concentration (MIC) S. aureus (S. aureus): >64 µg/mL
- IC50 at 48 hours (in vitro): > 200 µg/mL

SMILES: CC(C)[C@@H]1NC(=O)[C@@](C)(NC(=O)[C@H](C)NC(=O)[C@H](CCCCN)NC(=O)CNC(=O)[C@H](Cc2ccccc2)NC(=O)[C@H](CCCCN)NC(=O)[C@H](CCCCN)NC(=O)[C@H](CCCCN)NC(=O)[C@H](CCCCN)NC(=O)[C@H](CCCCN)NC(=O)[C@]2(C)CCCC=CCCC[C@](C)(NC(=O)CN)C(=O)NCC(=O)N[C@@H](CCCCN)C(=O)N[C@@H](Cc3ccccc3)C(=O)N2)CCCC=CCCC[C@@](C)(C(=O)N[C@@H](C)C(=O)N[C@@H](CCCCN)C(=O)N[C@@H](CCCCN)C(=O)NCC(=O)NCC(=O)N[C@@H](CCC(=O)O)C(=O)N[C@@H](CCC(=O)O)C(N)=O)NC(=O)[C@H](CCC(=O)O)NC(=O)CNC1=O [compound 55] (H-G[S5]GKF[S5]KKKKKFGKA[S5]VGE[S5]AKKGGEE-NH2; staple 2-6, 16-20)
- Minimum Inhibitory Concentration (MIC) E. coli (E. coli): 16 µg/mL
- Minimum Inhibitory Concentration (MIC) A. baumannii (A. baumannii): 8 µg/mL
- Minimum Inhibitory Concentration (MIC) P. aeruginosa (P. aeruginosa): 16 µg/mL
- Minimum Inhibitory Concentration (MIC) K. pneumoniae (K. pneumoniae): 64 µg/mL
- Minimum Inhibitory Concentration (MIC) S. aureus (S. aureus): >64 µg/mL
- IC50 at 48 hours (in vitro): 207 µg/mL (≈ 70.5 µM)

SMILES: CC(C)[C@@H]1NC(=O)[C@@](C)(NC(=O)[C@H](C)NC(=O)[C@H](CCCCN)NC(=O)CNC(=O)[C@H](Cc2ccccc2)NC(=O)[C@H](CCCCN)NC(=O)[C@H](CCCCN)NC(=O)[C@H](CCCCN)NC(=O)[C@H](CCCCN)NC(=O)[C@H](CCCCN)NC(=O)[C@]2(C)CCCC=CCCC[C@](C)(NC(=O)CN)C(=O)NCC(=O)N[C@@H](CCCCN)C(=O)N[C@@H](Cc3ccccc3)C(=O)N2)CCCC=CCCC[C@@](C)(C(=O)N[C@@H](C)C(=O)N[C@@H](CCCCN)C(=O)N[C@@H](CCCCN)C(=O)NCC(=O)NCC(=O)NCC(=O)N[C@@H](CCC(=O)O)C(N)=O)NC(=O)[C@H](CCC(=O)O)NC(=O)CNC1=O [compound 54] (H-G[S5]GKF[S5]KKKKKFGKA[S5]VGE[S5]AKKGGGE-NH2; staple 2-6, 16-20)
- Minimum Inhibitory Concentration (MIC) E. coli (E. coli): 8 µg/mL
- Minimum Inhibitory Concentration (MIC) A. baumannii (A. baumannii): 4 µg/mL
- Minimum Inhibitory Concentration (MIC) P. aeruginosa (P. aeruginosa): 8 µg/mL
- Minimum Inhibitory Concentration (MIC) K. pneumoniae (K. pneumoniae): 32 µg/mL
- Minimum Inhibitory Concentration (MIC) S. aureus (S. aureus): >64 µg/mL
- IC50 at 48 hours (in vitro): 262 µg/mL (≈ 91.5 µM)
